These results are taken from patent US6472158B1, “Ustilipides, method for the production and the use thereof” (Aventis Pharma Deutschland GmbH, priority 1998, dated 2002).

For one data set, the system named is human erythrocytes. As to the kind of experiment: In vitro hemolysis. Type of data set: cell-based. On the procedure: On use of the schizonellins, a fatal 100% hemolysis occurs at concentrations as low as 10 and 30 μg/ml respectively. Determination of the hemolytic effect of ustilipides A, B and C gave the following results, the hemolysis being measured by the percentage of ruptured cells.
The hemolysis experiments were carried out with human erythrocytes.
Venous blood freshly taken from humans, rhesus monkeys or beagle dogs is used to measure the hemolytic activity. The blood is collected in heparinized tubes and distributed in aliquots of 200 μl to 12 polyethylene tubes. One aliquot is mixed with 200 μl of distilled water and serves as 100% standard, and another is mixed with 200 μl of physiological saline (0.9% NaCl) (0% standard). 200 μl portions of substance dilutions in physiological saline to […] are distributed to the other tubes. All the tubes are cautiously agitated and then incubated at 37° C. for 3 hours. The 100% standard is then made up with 5 ml of distilled water, and the other tubes are each made up with 5 ml of physiological saline, and are centrifuged at 700 g for 5 minutes.
The hemolysis is determined by measuring the absorption of the supernatant in a spectrophotometer at a wavelength of 540 nm. The absorption of the standard with complete hemolysis is set at 100%. The absorption of the test product dilutions and of the 0% standard are measured and stated as a percentage of the maximum inducible hemolysis.

The target in data set [1] is T1, Dopamine D2 receptor (D2 long) (Homo sapiens, UniProt P14416).
T1 construct: expressed in transfected cells
T1 sequence (P14416 whole entry): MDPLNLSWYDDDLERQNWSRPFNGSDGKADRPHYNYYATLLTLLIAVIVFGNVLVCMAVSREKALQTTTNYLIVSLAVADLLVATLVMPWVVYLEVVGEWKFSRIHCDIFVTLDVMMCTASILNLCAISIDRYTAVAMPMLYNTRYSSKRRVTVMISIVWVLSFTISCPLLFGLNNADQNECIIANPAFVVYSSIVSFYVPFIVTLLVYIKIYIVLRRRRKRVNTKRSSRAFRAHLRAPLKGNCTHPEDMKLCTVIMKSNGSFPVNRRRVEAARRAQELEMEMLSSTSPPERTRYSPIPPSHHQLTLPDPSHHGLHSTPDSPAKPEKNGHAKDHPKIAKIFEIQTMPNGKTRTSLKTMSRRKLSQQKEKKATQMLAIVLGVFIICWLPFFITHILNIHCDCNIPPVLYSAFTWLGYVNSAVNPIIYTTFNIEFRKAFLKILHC
In words: Dopamine D2 receptor binding assay ([N-methyl-3H]spiroperidol, CHO membranes). To be noted: human D2 long receptor in CHO membranes, room temperature, 60 minutes. As to the method: (§1) The ustilipides effectively antagonize dopamine D2 and D3 receptors. One measure of their activity is the IC50 which indicates the concentration of inhibitor at which the rate of the normal enzymatic reaction (or receptor antagonism) is reduced by 50%.
(§2) The D3 and D2 long genes were isolated from a human cDNA library and stably transfected into CHO cells (CHO=Chinese hamster ovary). Membrane fractions are obtained from single clones with high-level expression. The binding assay is carried out in 96-well plates at room temperature for 60 minutes. The reaction mixture contains 50 μl of [N-methyl-^3H]spiroperidol, 50 μl of test substance or S(−)-eticlopride made for nonspecific binding and 100 μl of membrane. The assay is stopped by rapid filtration through a GF/B filter into a Skatron 96 cell harvester. The filters are cut up and placed in containers (T trays, Wallac), and the radioactivity is determined in a scintillation counter.
(§3) The specific binding is defined as the difference between the total binding and the binding in the presence of 10 μM S(−)-eticlopride. The total binding corresponds approximately to 10% of the counts of the ligands employed in total.
(§4) The inhibition of the binding by a test substance is calculated by correlation with the control reaction. Analysis of the data took place using the LIGAND software package of McPherson, Munson & Rodbard, Elsevier-BIOSOFT.

Data set [2] can be described thus: Physicochemical properties (solubility, stability). To be noted: for solubility: alcohols and other organic solvents. From the text:
The physicochemical and spectroscopic properties of the ustilipides can be summarized as follows: […]

Another data set deals with T2, Dopamine D3 receptor (Homo sapiens, UniProt P35462).
T2 construct: expressed in transfected cells
T2 sequence (P35462 whole entry): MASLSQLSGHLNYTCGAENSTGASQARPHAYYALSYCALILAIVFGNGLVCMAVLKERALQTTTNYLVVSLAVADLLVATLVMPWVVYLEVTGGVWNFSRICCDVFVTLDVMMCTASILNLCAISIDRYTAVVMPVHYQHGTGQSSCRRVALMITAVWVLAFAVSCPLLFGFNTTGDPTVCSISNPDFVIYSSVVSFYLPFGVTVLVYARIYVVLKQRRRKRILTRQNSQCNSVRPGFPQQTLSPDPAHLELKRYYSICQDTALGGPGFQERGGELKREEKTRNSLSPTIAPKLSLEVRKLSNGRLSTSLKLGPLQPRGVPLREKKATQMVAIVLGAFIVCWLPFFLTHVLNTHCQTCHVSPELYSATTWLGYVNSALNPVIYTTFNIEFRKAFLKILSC
In words: Dopamine D3 receptor binding assay ([N-methyl-3H]spiroperidol, CHO membranes). To be noted: human D3 receptor in CHO membranes, room temperature, 60 minutes. On the procedure:
as §1, §2, §3, §4

Setting [3] is: neutral and weakly acidic medium.

As usually defined, the IC50 is the concentration at which inhibition is half-maximal.

Regarding `CCCCCCCCCCCCCCCC(=O)O[C@@H]1[C@H](OC(=O)CCCCC)[C@H](OC[C@@H](O)[C@@H](O)CO)O[C@H](COC(C)=O)[C@H]1OC(C)=O` [Ustilipide A], the “hemolysis (percentage of ruptured cells)” value came out at 0.0% in the data set on human erythrocytes (8 μg/ml); 0.0% in the data set on human erythrocytes (16 μg/ml); 0.0% in the data set with human erythrocytes (32 μg/ml); 0.0% in the data set on human erythrocytes (62.5 μg/ml); 0.1% in the data set with human erythrocytes (125 μg/ml). In addition, the 50% inhibitory concentration (IC50) in data set [1] was 42.6 µM; on Dopamine D3 receptor it was 7.09 µM. The solubility result in data set [2] was “Colorless oil which is soluble in alcohols and other”. Further, the stability entry was “medium but unstable in alkaline solution” in data set [2] (alkaline solution); “organic solvents. Stable in neutral and weakly acidic” in data set [2] (setting [3]).

Regarding `CCCCCCCCCCCCCCCC(=O)O[C@@H]1[C@H](OC(=O)CCC)[C@H](OC[C@@H](O)[C@@H](O)CO)O[C@H](COC(C)=O)[C@H]1OC(C)=O` [Ustilipide B], the “hemolysis (percentage of ruptured cells)” value was 0.0% in the data set with human erythrocytes (8 μg/ml); 0.0% in the data set on human erythrocytes (16 μg/ml); 0.0% in the data set with human erythrocytes (32 μg/ml); 0.0% with human erythrocytes (62.5 μg/ml); 0.4% in the data set with human erythrocytes (125 μg/ml). Besides, the results for the IC50 (in data set [1]; at Dopamine D3 receptor) were 23.6 µM and 10.3 µM, respectively. Moreover, the solubility entry in data set [2] is “Colorless oil which is soluble in alcohols and other”. In addition, the stability result in data set [2] (alkaline solution) was “medium but unstable in alkaline solution”; in data set [2] (setting [3]) it was “organic solvents. Stable in neutral and weakly acidic”.

With `CCCCCCCCCCCCCCCC(=O)O[C@@H]1[C@H](OC(=O)C(C)C)[C@H](OC[C@@H](O)[C@@H](O)CO)O[C@H](CO)[C@H]1OC(C)=O` [Ustilipide C], the “hemolysis (percentage of ruptured cells)” value in the data set with human erythrocytes (8 μg/ml) stood at 0.0%; in the data set on human erythrocytes (16 μg/ml), 0.4%; in the data set on human erythrocytes (32 μg/ml), 0.4%; in the data set on human erythrocytes (62.5 μg/ml), 0.5%; in the data set with human erythrocytes (125 μg/ml) it was 0.8%. Moreover, the IC50 was 14.2 µM in data set [1] and 18.9 µM at Dopamine D3 receptor. For the same compound, the solubility result in data set [2] is “Colorless oil which is soluble in alcohols and other”. The stability entry is “medium but unstable in alkaline solution” in data set [2] (alkaline solution); “organic solvents. Stable in neutral and weakly acidic” in data set [2] (setting [3]).
